Data set [1] deals with SW48 human colorectal cancer cells (MSI-H cancer cells). Put plainly: SW48 cell viability, CellTiter-Glo, 120 hours (Example B). The following applies: Table 2; for SW48 pCC50: SW48 cell viability, 120 hours incubation; for CC50: Homo sapiens, SW48, 120 h, read-out: SW48 pCC50, SW48 cell viability, 120 hours incubation (converted). On the technique in general: ATP-based viability assays read luminescence as a measure of living cells.

The target in data set [2] is T1, recombinant full-length WRN protein (1-1432) (Homo sapiens, UniProt Q14191).
T1 construct: recombinant full-length WRN protein (1-1432)
Put plainly: WRN unwinding activity, fluorogenic 384-well assay (Example A). Type of data set: biochemical. Particulars: WRN unwinding activity, 4 hr; Table 2; read-out: 4 hr UNW pIC50 (converted). In outline:
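Read-out is end-point unwinding of a fluorophore/quencher duplex (ex 525, em 598 nm) after 60 min with 200 μM ATP and 12 nM DNA (2× stocks), EDTA stop. Compound first sat 4 h with 200 pM WRN (2× stock) in pH 8.0 Tris buffer; four-parameter fit gives pIC50.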

Where a name gives a salt, the structure may show the parent alone.

T1 sequence (Q14191 whole entry): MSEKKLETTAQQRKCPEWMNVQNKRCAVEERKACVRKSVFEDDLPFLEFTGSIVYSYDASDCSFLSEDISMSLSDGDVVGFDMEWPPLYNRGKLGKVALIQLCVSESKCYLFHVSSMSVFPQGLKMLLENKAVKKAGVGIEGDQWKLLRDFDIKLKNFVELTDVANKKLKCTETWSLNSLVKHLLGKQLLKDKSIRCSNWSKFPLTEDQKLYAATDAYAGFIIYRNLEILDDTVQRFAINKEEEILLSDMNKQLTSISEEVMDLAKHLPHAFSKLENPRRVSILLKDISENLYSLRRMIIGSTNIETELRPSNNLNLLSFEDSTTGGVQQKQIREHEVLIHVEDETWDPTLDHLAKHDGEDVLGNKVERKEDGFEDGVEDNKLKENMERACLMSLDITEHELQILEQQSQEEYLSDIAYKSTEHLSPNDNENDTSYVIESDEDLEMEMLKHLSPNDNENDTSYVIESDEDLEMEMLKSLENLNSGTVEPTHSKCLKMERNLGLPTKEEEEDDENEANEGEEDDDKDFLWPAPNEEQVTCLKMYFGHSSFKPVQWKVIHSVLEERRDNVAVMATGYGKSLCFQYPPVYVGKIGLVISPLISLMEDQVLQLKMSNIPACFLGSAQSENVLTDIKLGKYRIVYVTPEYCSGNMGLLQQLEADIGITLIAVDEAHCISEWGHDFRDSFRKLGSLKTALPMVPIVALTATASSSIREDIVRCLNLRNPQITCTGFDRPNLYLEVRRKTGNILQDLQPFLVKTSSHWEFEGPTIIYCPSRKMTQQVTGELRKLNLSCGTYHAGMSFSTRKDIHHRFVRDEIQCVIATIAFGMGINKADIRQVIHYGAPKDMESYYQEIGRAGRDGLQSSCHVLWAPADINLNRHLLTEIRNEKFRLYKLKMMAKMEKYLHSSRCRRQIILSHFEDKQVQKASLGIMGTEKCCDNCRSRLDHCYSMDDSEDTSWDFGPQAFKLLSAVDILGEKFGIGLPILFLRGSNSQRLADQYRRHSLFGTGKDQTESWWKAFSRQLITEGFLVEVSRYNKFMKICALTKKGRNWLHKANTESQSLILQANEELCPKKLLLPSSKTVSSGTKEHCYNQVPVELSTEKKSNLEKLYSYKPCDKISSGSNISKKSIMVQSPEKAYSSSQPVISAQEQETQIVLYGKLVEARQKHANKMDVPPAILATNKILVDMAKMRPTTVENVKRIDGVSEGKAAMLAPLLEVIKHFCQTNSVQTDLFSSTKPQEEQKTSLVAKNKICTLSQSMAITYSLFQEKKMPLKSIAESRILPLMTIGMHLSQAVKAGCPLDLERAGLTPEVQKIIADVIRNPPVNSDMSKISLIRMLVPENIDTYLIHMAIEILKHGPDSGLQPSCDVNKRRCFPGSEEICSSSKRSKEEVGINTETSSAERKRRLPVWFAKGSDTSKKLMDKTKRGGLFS

`Cc1nc2cc(S(=O)(=O)N(C)c3ccc([C@H]4CCC[C@@H](C(=O)Nc5ccc(C(F)(F)F)cc5F)[C@@H]4C(=O)O)cc3)ccc2n1C` (single isomer, unassigned) [Example 84]: in data set [1], the “SW48 pCC50” value is listed as 5.3. Moreover, in data set [2], the IC50 is 158 nM.
Take `CN(c1ccc([C@H]2CCC[C@@H](C(=O)Nc3ccc(C(F)(F)F)cc3F)[C@@H]2C(=O)O)cc1)S(=O)(=O)c1ccc2[nH]cnc2c1` (single isomer, unassigned) [Example 86]: the CC50 in data set [1] is 2.51 µM. Also, in data set [2], the IC50 was 1.58 nM.
The corresponding values for `Cc1nc2cc(S(=O)(=O)N(C)c3ccc([C@H]4CCC[C@@H](C(=O)Nc5ccc(C(F)(F)F)cc5F)[C@@H]4C(=O)O)cc3)ccc2[nH]1` (single isomer, unassigned) [Example 92] are 0.794 µM and 1.58 nM.
Take `Cc1nc2cc(S(=O)(=O)N(C)c3ccc([C@H]4C[C@@H](O)C[C@@H](C(=O)Nc5ccc(C(F)(F)F)cc5F)[C@@H]4C(=O)O)cc3)ccc2n1C` (single isomer, unassigned) [Example 145]: the CC50 in data set [1] was 1.26 µM. In data set [2], the IC50 is 1.58 nM.
On the same counts, the results for `[2H]C([2H])([2H])O[C@@H]1C[C@H](c2ccc(N(C)S(=O)(=O)c3ccc4c(c3)nc(C)n4C)cc2)[C@@H](C(=O)O)[C@H](C(=O)Nc2ccc(C(F)(F)F)cc2F)C1` (single isomer, unassigned) [Example 147] are 12.6 µM and 79.4 nM.
On the same counts, the results for `Cc1nc2cc(S(=O)(=O)N(C)c3ccc([C@H]4C[C@@H](Oc5ccccc5)C[C@@H](C(=O)Nc5ccc(C(F)(F)F)cc5F)[C@@H]4C(=O)O)cc3)ccc2n1C` (single isomer, unassigned) [Example 152] are 2 µM and 10 nM.
On the same counts, the results for `Cc1nc2cc(S(=O)(=O)N(C)c3ccc([C@@H]4CCC[C@H](C(=O)Nc5ccc(C(F)(F)F)cc5F)[C@H]4C(=O)O)nc3)ccc2n1C` (single isomer, unassigned) [Example 160] are 15.8 µM and 50.1 nM.
With `Cc1nc2cc(S(=O)(=O)N(C)c3ccc([C@@H]4CCC[C@H](C(=O)Nc5ccc(C(F)(F)F)cc5F)[C@H]4C(=O)O)cc3C#N)ccc2n1C` (single isomer, unassigned) [Example 162], in data set [1], the CC50 was 3.16 µM. Besides, in data set [2], the IC50 is 2 nM.
For `Cc1nc2cc(S(=O)(=O)N(C)c3cnc([C@H]4CCC[C@@H](C(=O)Nc5ccc(C(F)(F)F)cc5F)[C@@H]4C(=O)O)cn3)ccc2n1C` (single isomer, unassigned) [Example 164], in data set [1], the CC50 was 2.51 µM. Besides, the IC50 in data set [2] was 1.26 nM.
The corresponding values for `CN1CCC[C@H](c2cccc(S(=O)(=O)N(C)c3ccc([C@H]4CCC[C@@H](COc5ccc(C(F)(F)F)cc5)[C@@H]4C(=O)O)cc3)c2)C1` (single isomer, unassigned) [Example 217, rel-(1R,2S,6R)-2-(4-((N-methyl-3-((S*)-1-methylpiperidin-3-yl)phenyl)sulfonamido)phenyl)-6-((4-(trifluoromethyl)phenoxy)methyl)cyclohexane-1-carboxylic acid] are 10 µM and 126 nM.
The corresponding values for `CN1CCC[C@@H](c2cccc(S(=O)(=O)N(C)c3ccc([C@H]4CCC[C@@H](COc5ccc(C(F)(F)F)cc5)[C@@H]4C(=O)O)cc3)c2)C1` (single isomer, unassigned) [Example 218, rel-(1R,2S,6R)-2-(4-((N-methyl-3-((R*)-1-methylpiperidin-3-yl)phenyl)sulfonamido)phenyl)-6-((4-(trifluoromethyl)phenoxy)methyl)cyclohexane-1-carboxylic acid] are 15.8 µM and 39.8 nM.
`CCO[C@@H]1C[C@H](COc2ccc(C(F)(F)F)cc2)[C@@H](C(=O)O)[C@H](c2ccc(N(C)S(=O)(=O)c3ccc4c(c3)nc(C)n4C)cc2)C1` (single isomer, unassigned) [Example 220]: in data set [1], the CC50 is 15.8 µM. Also, in data set [2], the IC50 was 316 nM.
The corresponding values for `O=C(O)[C@@H]1[C@@H](C(=O)Nc2ccc(C(F)(F)F)cc2F)CCC[C@H]1c1ccc(NS(=O)(=O)c2ccc3[nH]cnc3c2)cc1` (single isomer, unassigned) [Example 225] are 7.94 µM and 0.251 nM.
On the same counts, the results for `N#Cc1cc([C@H]2CCC[C@@H](C(=O)Nc3ccc(C(F)(F)F)cc3F)[C@@H]2C(=O)O)ccc1Br` (single isomer, unassigned) [Example 230] are 7.94 µM and 100 nM.
On the same counts, the results for `Cc1nc2cc(S(=O)(=O)N(C)c3ccc([C@@H]4CC[C@H](C)[C@H](C(=O)Nc5ccc(C(F)(F)F)cc5F)[C@H]4C(=O)O)cc3)ccc2n1C` (single isomer, unassigned) [Example 236] are 7.94 µM and 631 nM.
`Cc1nc2cc(S(=O)(=O)N3CCOc4cc([C@H]5CCC[C@@H](C(=O)Nc6ccc(C(F)(F)F)cc6F)[C@@H]5C(=O)O)ccc43)ccc2n1C` (single isomer, unassigned) [Example 241]: the CC50 in data set [1] was 1.26 µM. For the same compound, in data set [2], the IC50 is 5.01 nM.
With `Cc1nc2cc(S(=O)(=O)N(C)c3ccc([C@H]4CCC[C@@H](C(=O)Nc5ccc(C(F)(F)F)cc5F)[C@@H]4C(=O)O)cc3)cc([C@@H]3CCCNC3)c2n1C` (single isomer, unassigned) [Example 268, (1R,2R,6S)-2-((2-fluoro-4-(trifluoromethyl)phenyl)carbamoyl)-6-(4-((N,1,2-trimethyl-7-((S*)-piperidin-3-yl)-1H-benzo[d]imidazole)-5-sulfonamido)phenyl)cyclohexane-1-carboxylic acid hydrochloride], the CC50 in data set [1] was 15.8 µM. The IC50 in data set [2] was 0.794 nM.
On the same counts, the results for `Cc1nc2cc(S(=O)(=O)N(C)c3ccc([C@@H]4C[C@H](C#N)C[C@H](C(=O)Nc5ccc(C(F)(F)F)cc5F)[C@H]4C(=O)O)cc3)ccc2n1C` (single isomer, unassigned) [Example 286] are 12.6 µM and 100 nM.
On the same counts, the results for `Cc1nc2cc(S(=O)(=O)N(C)c3ccc([C@@H]4C[C@H](OCC5CC6CCC(C5)O6)C[C@H](C(=O)Nc5ccc(C(F)(F)F)cc5F)[C@H]4C(=O)O)cc3)ccc2n1C` (single isomer, unassigned) [Example 359] are 12.6 µM and 1580 nM.
The corresponding values for `Cc1nc2cc(S(=O)(=O)N(C)c3ccc([C@@H]4CCC[C@H](C(=O)Nc5ccc(C(F)(F)F)cc5F)[C@H]4C(=O)O)cc3F)ccc2n1C` (single isomer, unassigned) [Example 369] are 12.6 µM and 631 nM.
As to `Cc1nc2cc(S(=O)(=O)N(C)c3ccc([C@H]4CCC[C@@H](C(=O)Nc5ccc(C(F)(F)F)cc5F)[C@@H]4C(=O)O)c(F)c3)ccc2n1C` (single isomer, unassigned) [Example 375], in data set [1], the “SW48 pCC50” value worked out at 4.7. Besides, in data set [2], the IC50 is 100 nM.
In the case of `Cc1nc2cc(S(=O)(=O)N(C)c3ccc([C@@H]4C[C@H](OC(F)F)C[C@H](C(=O)Nc5ccc(C(F)(F)F)cc5F)[C@H]4C(=O)O)cc3)ccc2n1C` (stereo in doubt) [Example 283, rel-(1R,2R,4R,6S)-4-(difluoromethoxy)-2-((2-fluoro-4-(trifluoromethyl)phenyl)carbamoyl)-6-(4-((N,1,2-trimethyl-1H-benzo[d]imidazole)-5-sulfonamido)phenyl)cyclohexane-1-carboxylic acid], the CC50 in data set [1] was 20 µM. Besides, the IC50 in data set [2] was 631 nM.
On the same counts, the results for `CC(=O)N(C)[C@@H]1C[C@H](C(=O)Nc2ccc(C(F)(F)F)cc2F)[C@@H](C(=O)O)[C@H](c2ccc(N(C)S(=O)(=O)c3ccc4c(c3)nc(C)n4C)cc2)C1` (stereo in doubt) [Example 291, rel-(1R,2R,4R,6S)-2-((2-fluoro-4-(trifluoromethyl)phenyl)carbamoyl)-4-(N-methylacetamido)-6-(4-((N,1,2-trimethyl-1H-benzo[d]imidazole)-5-sulfonamido)phenyl)cyclohexane-1-carboxylic acid] are 12.6 µM and 31.6 nM.
Consider `Cc1nc2cc(S(=O)(=O)N(C)c3ccc([C@H]4C[C@H](N)C[C@@H](C(=O)Nc5ccc(C(F)(F)F)cc5F)[C@@H]4C(=O)O)cc3)ccc2n1C` (stereo in doubt) [Example 300, rel-(1R,2R,4S,6S)-4-amino-2-((2-fluoro-4-(trifluoromethyl)phenyl)carbamoyl)-6-(4-((N,1,2-trimethyl-1H-benzo[d]imidazole)-5-sulfonamido)phenyl)cyclohexane-1-carboxylic acid], for which the CC50 in data set [1] is 12.6 µM. In addition, the IC50 in data set [2] was 1.58 nM.
The corresponding values for `Cc1nc2cc(S(=O)(=O)N(C)c3ccc([C@@H]4C[C@@H](N5CCC(F)(F)C5)C[C@H](C(=O)Nc5ccc(C(F)(F)F)cc5F)[C@H]4C(=O)O)cc3)ccc2n1C` (stereo in doubt) [Example 303, rel-(1R,2R,4S,6S)-4-(3,3-difluoropyrrolidin-1-yl)-2-((2-fluoro-4-(trifluoromethyl)phenyl)carbamoyl)-6-(4-((N,1,2-trimethyl-1H-benzo[d]imidazole)-5-sulfonamido)phenyl)cyclohexane-1-carboxylic acid] are 25.1 µM and 3980 nM.

The values above are taken from US12662451B2, “Chemical compounds and uses thereof” (GLAXOSMITHKLINE INTELLECTUAL PROPERTY (NO.4) LIMITED, priority 2023, dated 2026).
